Source: PubChem BioAssay AID1918931 (Molecular Pharmacology Branch, DTP, NCI, 2023)
pIC50: −log10 of the molar value. “And” between values parts separate entries of the source, which are not always exact repeats. Equal values may be shown once.

Test system: 138582-337-R-J1-PDC complex spheroid viability
Assay: Anticancer human tumor 138582-337-R-J1-PDC patient-derived Merkel cell tumor cell line growth inhibition
Details: for viability, T/C: stronger effect = lower value
Excerpt: Multicellular complex tumor spheroid response to LSD1 Inhibitor Iadademstat in combination with a variety of drugs and investigational agents in selected tumor cell lines
The current study was undertaken to assess response to LSD1 inhibitors in combination with standard-of-care drugs and investigational agents in solid tumor complex spheroid models as well as in the K-562 leukemia. Complex spheroids include a stromal component modeled by human endothelial cells (HUVEC) and fibroblasts modeled by human mesenchymal stem cells (MSCs). The concentration ranges selected for each drug and investigational agent were based upon clinically achievable concentrations if the clinical Cmax of the agent was known.
Compounds. The drugs and investigational agents used in this study are listed on Table 1. All of the agents used, including staurosporine (NSC755774) and gemcitabine (NSC613327), were obtained from the Developmental Therapeutics Program, NCI. FDA-approved anticancer drugs are available from the NCI at http://dtp.nci.nih.gov/branches/dscb/oncology_drugset_explanation.html. Drugs and investigational agents were >95% pure by proton nuclear magnetic resonance (NMR) and liquid chromatography/mass spectrometry (LC/MS). Stock solutions were prepared at 400x in DMSO, stored at -70 degrees C, and diluted in fresh medium prior to their use. The final concentration of DMSO in cell culture wells never exceeded 0.25% (v/v). The FDA-approved anticancer drug set is available from the Developmental Therapeutics Program at https://dtp.cancer.gov/organization/dscb/obtaining/available_plates.htm. All drugs and investigational agents were tested over a range starting from a high concentration at or near the clinical Cmax and decreasing in half-log increments. If the clinical Cmax for an agent had not been determined, the highest concentration tested was 10 microM.
Cell Lines. The patient-derived cancer cell (PDC) lines: 292921-168-R-J2-PDC, K24384-001-R-PDC, and 521955-158-R2-J5-PDC pancreatic carcinomas, 556581-035-R-J1 ovarian carcinoma, 324938-238-R-J1-PDC, 855422-203-R-J1-PDC and 883617-216-R-J1-PDC urothelial bladder carcinomas, 743489-274-T-PDC renal cell carcinoma, 138582-R-J1 Merkel cell tumor, K60290-347-R-J1 and K57222-313-R-J1-PDC glioblastomas, 653999-131-R-J2-PDC, LG0703-F948-PDC, and 349418-098-R-PDC non-small cell lung carcinomas, 885512-296-R-J2-PDC, 171881-019-R-J1-PDC breast carcinomas and 186277-243-T-J2-PDC and 233499-124-R-J2-PDC colon carcinomas were obtained from the NCI Patient-Derived Models Repository (PDMR, https://pdmr.cancer.gov). The established cell lines NCI/ADR-RES (RRID:CVCL_14520 and OVCAR-5 (RRID:CVCL_1628) ovarian carcinomas, 786-O (RRID:CVCL_1051) and A498 (RRID:CVCL_A498) renal cell carcinoma, NCI-H211 (ATCC, cat. CRL-5824; RRID:CVCL_1529), NCI-H196 (ATCC, cat. CRL-5823, RRID:CVCL_1509), SW 1271 (ATCC, cat. CRL-2177, RRID:CVCL_1716) and NCI-H1876 (ATCC, cat. CRL-5902, RRID:CVCL_1503) small cell lung carcinomas, MDA-MB-231 (RRID:CVCL_0062) and MDA-MB-468 (RRID:CVCL_0419)breast carcinomas (10-12). Pooled donor human umbilical vein endothelial cells (HUVEC, Lonza, cat. CC-2519) and human mesenchymal stem cells (hMSC, Lonza, cat. PT-2501) were purchased from Lonza (Walkersville, MD).
Cell Culture. All cells were maintained in an incubator at 37 degrees C and 5% CO2 with 95% humidity. The PDC lines were cultured according to standard operating procedures established by the NCI PDMR (https://pdmr.cancer.gov). Briefly all PDCs were thawed and cultured in Matrigel-coated flasks prepared with a working solution of 1X Ham's F-12 nutrient mix, without supplementation (Invitrogen, Waltham, MA, cat. 11765054), 100 U/mL penicillin-streptomycin (Invitrogen, cat. 15140122), and 2.5% Matrigel (Corning Inc., Corning, NY, cat. 354248) for the first three passages. […]

[1] = curve of first compound, second compound 0.1 µM
[2] = curve of first compound, second compound 0.316 µM
[3] = curve of first compound, second compound 1 µM
[4] = curve of first compound, second compound 3.16 µM
[5] = curve of first compound, second compound 10 µM
[6] = second compound 0.1 µM, first compound 0.00949 µM
[7] = second compound 0.1 µM, first compound 0.03 µM
[8] = second compound 0.1 µM, first compound 0.0949 µM
[9] = second compound 0.1 µM, first compound 0.3 µM
[10] = second compound 0.316 µM, first compound 0.00949 µM
[11] = second compound 0.316 µM, first compound 0.03 µM
[12] = second compound 0.316 µM, first compound 0.0949 µM
[13] = second compound 0.316 µM, first compound 0.3 µM
[14] = second compound 1 µM, first compound 0.00949 µM
[15] = second compound 1 µM, first compound 0.03 µM
[16] = second compound 1 µM, first compound 0.0949 µM
[17] = second compound 1 µM, first compound 0.3 µM
[18] = second compound 3.16 µM, first compound 0.00949 µM
[19] = second compound 3.16 µM, first compound 0.03 µM
[20] = second compound 3.16 µM, first compound 0.0949 µM
[21] = second compound 3.16 µM, first compound 0.3 µM
[22] = second compound 10 µM, first compound 0.00949 µM
[23] = second compound 10 µM, first compound 0.03 µM
[24] = second compound 10 µM, first compound 0.0949 µM
[25] = second compound 10 µM, first compound 0.3 µM
[26] = second compound 0.1 µM, first compound 0.000949 µM
[27] = second compound 0.1 µM, first compound 0.003 µM
[28] = second compound 0.316 µM, first compound 0.000949 µM
[29] = second compound 0.316 µM, first compound 0.003 µM
[30] = second compound 1 µM, first compound 0.000949 µM
[31] = second compound 1 µM, first compound 0.003 µM
[32] = second compound 3.16 µM, first compound 0.000949 µM
[33] = second compound 3.16 µM, first compound 0.003 µM
[34] = second compound 10 µM, first compound 0.000949 µM
[35] = second compound 10 µM, first compound 0.003 µM
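Also: spheroids exposed to agents for 7 days.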
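For viability, T/C in this document: 100% = DMSO vehicle control viability.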

NS(=O)(=O)OCC1CC(n2ccc3c(NC4CCc5ccccc54)ncnc32)CC1O (stereo unspecified) + NC1CCC(NC2CC2c2ccccc2)CC1
pIC50 [1]: 6.21 | pIC50 [2]: 6.18 | pIC50 [3]: 6.20 | pIC50 [4]: 6.33 | pIC50 [5]: 6.09 | viability, T/C [6]: 98.5% | viability, T/C [7]: 114% | viability, T/C [8]: 92.1% | viability, T/C [9]: 67.2% | viability, T/C (second compound 0.1 µM, first compound 0.949 µM): 40.5% | viability, T/C (second compound 0.1 µM, first compound 3 µM): 33.1% | viability, T/C [10]: 112% | viability, T/C [11]: 96.2% | viability, T/C [12]: 84.2% | viability, T/C [13]: 67.3% | viability, T/C (second compound 0.316 µM, first compound 0.949 µM): 37.4% | viability, T/C (second compound 0.316 µM, first compound 3 µM): 37% | viability, T/C [14]: 106% | viability, T/C [15]: 107% | viability, T/C [16]: 85.5% | viability, T/C [17]: 72.4% | viability, T/C (second compound 1 µM, first compound 0.949 µM): 35.3% | viability, T/C (second compound 1 µM, first compound 3 µM): 32.2% | viability, T/C [18]: 101% | viability, T/C [19]: 119% | viability, T/C [20]: 90.1% | viability, T/C [21]: 64.3% | viability, T/C (second compound 3.16 µM, first compound 0.949 µM): 29.8% | viability, T/C (second compound 3.16 µM, first compound 3 µM): 22.2% | viability, T/C [22]: 107% | viability, T/C [23]: 107% | viability, T/C [24]: 92.8% | viability, T/C [25]: 79.5% | viability, T/C (second compound 10 µM, first compound 0.949 µM): 44.4% | viability, T/C (second compound 10 µM, first compound 3 µM): 26%

CC1(C)CCC(CN2CCN(c3ccc(C(=O)NS(=O)(=O)c4ccc(NCC5CCOCC5)c([N+](=O)[O-])c4)c(Oc4cnc5[nH]ccc5c4)c3)CC2)=C(c2ccc(Cl)cc2)C1
viability, T/C (compound 0.0316 µM): 95.7% and 61.2% | viability, T/C (compound 0.1 µM): 95.8% and 70.4% | viability, T/C (compound 0.316 µM): 89.5% and 69.6% | viability, T/C (compound 1 µM): 101% and 73.5% | viability, T/C (compound 3.16 µM): 101% and 55.5% | pIC50 (curve of compound): < 5.00 and 5.45

Nc1ncn(C2CC(O)C(CO)S2)c(=O)n1 (stereo unspecified) + NC1CCC(NC2CC2c2ccccc2)CC1
pIC50 [1]: < 6.52 | pIC50 [2]: < 6.52 | pIC50 [3]: < 6.52 | pIC50 [4]: < 6.52 | pIC50 [5]: < 6.52 | viability, T/C [26]: 98.9% | viability, T/C [27]: 105% | viability, T/C [6]: 101% | viability, T/C [7]: 102% | viability, T/C [8]: 106% | viability, T/C [9]: 93.5% | viability, T/C [28]: 95% | viability, T/C [29]: 93.9% | viability, T/C [10]: 96.4% | viability, T/C [11]: 95.4% | viability, T/C [12]: 94.5% | viability, T/C [13]: 108% | viability, T/C [30]: 90.9% | viability, T/C [31]: 103% | viability, T/C [14]: 107% | viability, T/C [15]: 87.8% | viability, T/C [16]: 81% | viability, T/C [17]: 100% | viability, T/C [32]: 89.2% | viability, T/C [33]: 96% | viability, T/C [18]: 88% | viability, T/C [19]: 78.4% | viability, T/C [20]: 93.5% | viability, T/C [21]: 84.7% | viability, T/C [34]: 80.1% | viability, T/C [35]: 80.4% | viability, T/C [22]: 91.4% | viability, T/C [23]: 87.5% | viability, T/C [24]: 78.6% | viability, T/C [25]: 85%

CC1COCCN1c1cc(-c2ccnn2C)c2ccnc(-c3ccn[nH]3)c2n1 (stereo unspecified)
viability, T/C (compound 0.00316 µM): 76.4% and 67.9% | viability, T/C (compound 0.01 µM): 86.4% and 64.7% | viability, T/C (compound 0.0316 µM): 69.7% and 48.6% | viability, T/C (compound 0.1 µM): 61% and 34.3% | viability, T/C (compound 0.316 µM): 61% and 28.5% | viability, T/C (compound 1 µM): 39.8% and 25.1%

CC1COCCN1c1cc(C2(S(C)(=N)=O)CC2)nc(-c2ccnc3[nH]ccc23)n1 (stereo unspecified)
viability, T/C (compound 0.0316 µM): 91.2% and 97.8% | viability, T/C (compound 0.1 µM): 85.4% and 99.9% | viability, T/C (compound 0.316 µM): 88.4% and 81.3% | viability, T/C (compound 1 µM): 83.1% and 59.1% | viability, T/C (compound 3.16 µM): 68.1% and 46.4% | viability, T/C (compound 10 µM): 45.8% and 38.9% | pIC50 (curve of compound): 5.09 and 5.68

Nc1ncn(C2CC(O)C(CO)O2)c(=O)n1 (stereo unspecified)
viability, T/C (compound 0.00316 µM): 102% and 109% | viability, T/C (compound 0.01 µM): 78.7% and 124% | viability, T/C (compound 0.0316 µM): 90% and 123% | viability, T/C (compound 0.1 µM): 83.7% and 111% | viability, T/C (compound 0.316 µM): 112% and 122% | viability, T/C (compound 1 µM): 112% and 91.2% | pIC50 (curve of compound): < 6.00

CCc1c2c(nc3ccc(O)cc13)-c1cc3c(c(=O)n1C2)COC(=O)[C@]3(O)CC + NC1CCC(NC2CC2c2ccccc2)CC1
pIC50 [1]: 7.92 | pIC50 [2]: 7.94 | pIC50 [3]: 8.00 | pIC50 [4]: 7.92 | pIC50 [5]: 7.97 | viability, T/C [26]: 91.7% | viability, T/C [27]: 87.9% | viability, T/C [6]: 57.5% | viability, T/C [7]: 18.6% | viability, T/C [8]: 0.42% | viability, T/C [9]: 0.49% | viability, T/C [28]: 85.1% | viability, T/C [29]: 84.6% | viability, T/C [10]: 55.1% | viability, T/C [11]: 18.2% | viability, T/C [12]: 0.45% | viability, T/C [13]: 0.5% | viability, T/C [30]: 80.9% | viability, T/C [31]: 78.7% | viability, T/C [14]: 51.5% | viability, T/C [15]: 14.5% | viability, T/C [16]: 0.38% | viability, T/C [17]: 0.35% | viability, T/C [32]: 78.3% | viability, T/C [33]: 75.1% | viability, T/C [18]: 58.9% | viability, T/C [19]: 17.6% | viability, T/C [20]: 0.39% | viability, T/C [21]: 0.54% | viability, T/C [34]: 68.8% | viability, T/C [35]: 68.9% | viability, T/C [22]: 54.2% | viability, T/C [23]: 9.4% | viability, T/C [24]: 0.34% | viability, T/C [25]: 0.52%
